The source of these data is US7414049B2, “4-oxo-2,3,4,5-tetrahydro-benzo[b][1,4]diazepine derivatives” (Hoffmann-La Roche Inc., priority 2006, dated 2008).

In brackets after ≈: the same amount, converted by molar mass.

Data set [1] is described as follows: Microsome incubation, metabolic stability (mouse). It is filed as in vitro ADME. The following applies: for microsomal CLint at 10 μM: pH 7.4, liver microsomes, test compound 10 μM, 37° C., read-out: Intrinsic clearance (mouse).
Data set [2] can be described thus: Microsome incubation, metabolic stability (human). As to conditions: for microsomal CLint at 10 μM: pH 7.4, human liver microsomes 2.0 mg prot/mL, test compound 10 μM, 37° C., read-out: Intrinsic clearance (human). It is filed as in vitro ADME. The procedure:
The compounds of formula I of the present invention are further characterized by high metabolic stability. This parameter is a prerequisite for good bioavailability, which is necessary to obtain medicaments with acceptable in-vivo activity. The metabolic stability has been tested by the following method:
Incubation mixtures consisted of liver microsomes (rat 1.0 mg prot/mL or human 2.0 mg prot/mL), test compound 10 μM, MgCl2 (3.3 mM), and an NADPH regenerating system consisting of glucose-6-phosphate dehydrogenase, NADPH and glucose-6-phosphate (equivalent to 1 mM NADPH) in a total volume of 1.0 mL of potassium phosphate buffer 100 mM pH 7.4. Reactions were initiated by addition of the NADPH regenerating system at 37° C. At the time of 1, 5, 9, 13, 17, 21, 25, and 29 min a 5 μL aliquot was directly analysed on a HPLC-MS/MS system consisting of a HP 1100 quaternary pump with degasser and a PE-Sciex API-2000 MS/MS spectrometer. The analytical column was a Waters Symmetry Shield RP8 (2.1*50 mm with a […] particle size). A polarity non linear gradient from phase A (MeOH/Ac. Form. 1% 20/80) to phase B (MeOH) was applied for a total run time of 2 minutes at a flow rate of 0.25 mL/min. The PE-Sciex API-2000 MS/MS spectrometer was used for detection of the parent compound. In vivo metabolic clearance was predicted according to published procedures [Houston, Biochem. Pharmacol. 47:1469-1479 (1994)]. In brief, the intrinsic clearance (Clearance, see table below) is calculated from the measured in vitro half-life taking into account incubation volume and microsomal protein used for the in vitro incubation. The intrinsic clearance is expressed in terms of μl/min/mg microsomal protein. For in vivo extrapolations, the hepatic extraction ratio (E) was calculated. Here it is reported the % MAB value which is equal to 1-E. The MAB (maximal achievable bioavailability) values express the maximal bioavailability that one can achieve with the given clearance values.

Data set [3] can be described thus: THESA assay, thermodynamic solubility. It is filed as physicochemical. The following applies: 22.5 °C, aqueous buffer, thermodynamic from solid; 50 mM phosphate buffer, room temperature (22.5±1° C.). The procedure: In addition, the compounds of the present invention have been tested in a THESA assay for determination of the thermodynamic solubility.
Approximately 2 mg of each compound was added in excess to a 50 mM phosphate buffer, at room temperature (22.5±1° C.). Each sample was placed in a microanalysis tube, which was sonicated for 1 h and agitated for 2 h. All suspensions were left overnight. At the next day all pHs were measured with a pH-meter and the samples filtered with a micronic filterplate (MSGVN2250) to separate the solid material from the solution. Then, all solutions were analyzed by HPLC. The calibration line was established by different concentrations of the compound in DMSO. From this regression equation the solubility of the compound was determined.

[4] abbreviates: maximal achievable bioavailability = 1-E, extrapolated from intrinsic clearance.

On to `CC(O)(C(=O)NCC(F)(F)C(F)(F)F)C(=O)N[C@H]1CN(CCO)c2ccccc2NC1=O` (mixture of isomers) [Example 7, (RS)-2-Hydroxy-N-[(S)-1-(2-hydroxy-ethyl)-4-oxo-2,3,4,5-tetrahydro-1H-benzo[b][1,4]diazepin-3-yl]-2-methyl-N′-(2,2,3,3,3-pentafluoro-propyl)-malonamide], for which, in data set [1] (setting [4]), the “MAB (mouse)” value is on record as 49.3%. In addition, the microsomal CLint at 10 μM in data set [1] stood at 32.5 µL/min/mg; in data set [2], 5.2 µL/min/mg. In addition, the “MAB (human)” value in data set [2] (setting [4]) was 74.9%.

On to `CC(O)(C(=O)NCC(F)(F)C(F)(F)F)C(=O)N[C@H]1CN(C(=O)OCC(F)(F)F)c2cc(F)c(F)cc2NC1=O` (single isomer, unassigned) [Example 1, (S)-7,8-Difluoro-3-[(R or S)-2-hydroxy-2-(2,2,3,3,3-pentafluoro-propylcarbamoyl)-propionylamino]-4-oxo-2,3,4,5-tetrahydro-benzo[b][1,4]diazepine-1-carboxylic acid 2,2,2-trifluoro-ethyl ester and (S)-7,8-Difluoro-3-[(S or R)-2-hydroxy-2-(2,2,3,3,3-pentafluoro-propylcarbamoyl)-propionylamino]-4-oxo-2,3,4,5-tetrahydro-benzo[b][1,4]diazepine-1-carboxylic acid 2,2,2-trifluoro-ethyl ester], for which the solubility (thermodynamic) in data set [3] amounted to 77 µg/mL (≈ 131 µM). Moreover, the “MAB (mouse)” value in data set [1] (setting [4]) is reported as 58.5%. Further, the microsomal CLint at 10 μM in data set [1] was 22.4 µL/min/mg; in data set [2], 0.05 µL/min/mg. In addition, the “MAB (human)” value in data set [2] (setting [4]) is reported as 99.7%.

Consider `CC(O)(C(=O)NCC(F)(F)C(F)(F)F)C(=O)N[C@H]1CN(C(=O)OCC(F)(F)F)c2cc(F)c(F)cc2N(CC(F)(F)F)C1=O` (single isomer, unassigned) [Example 2], for which, in data set [1] (setting [4]), the “MAB (mouse)” value was 83.0%. The microsomal CLint at 10 μM was found to be 6.5 µL/min/mg in data set [1] and 13.1 µL/min/mg in data set [2]. Moreover, the “MAB (human)” value in data set [2] (setting [4]) is given as 54.3%.

As to `CC(O)(C(=O)NCC(F)(F)C(F)(F)F)C(=O)N[C@H]1CN(CC(F)(F)F)c2ccc(F)cc2NC1=O` (single isomer, unassigned) [Example 3, N-[(S)-7-Fluoro-4-oxo-1-(2,2,2-trifluoro-ethyl)-2,3,4,5-tetrahydro-1H-benzo[b][1,4]diazepin-3-yl]-(R or S)-2-hydroxy-2-methyl-N′-(2,2,3,3,3-pentafluoro-propyl)-malonamide and N-[(S)-7-Fluoro-4-oxo-1-(2,2,2-trifluoro-ethyl)-2,3,4,5-tetrahydro-1H-benzo[b][1,4]diazepin-3-yl]-(S or R)-2-hydroxy-2-methyl-N′-(2,2,3,3,3-pentafluoro-propyl)-malonamide], the “MAB (mouse)” value in data set [1] (setting [4]) is given as 20.1%. The microsomal CLint at 10 μM came out at 126 µL/min/mg in data set [1] and 11.9 µL/min/mg in data set [2]. Also, in data set [2] (setting [4]), the “MAB (human)” value was 56.7%.

Turning to `CC(O)(C(=O)NCC(F)(F)C(F)(F)F)C(=O)N[C@H]1CN(CC(F)(F)F)c2ccccc2NC1=O` (single isomer, unassigned) [Example 4, (R or S)-2-Hydroxy-2-methyl-N-[(S)-4-oxo-1-(2,2,2-trifluoro-ethyl)-2,3,4,5-tetrahydro-1H-benzo[b][1,4]diazepin-3-yl]-N′-(2,2,3,3,3-pentafluoro-propyl)-malonamide and (S or R)-2-Hydroxy-2-methyl-N-[(S)-4-oxo-1-(2,2,2-trifluoro-ethyl)-2,3,4,5-tetrahydro-1H-benzo[b][1,4]diazepin-3-yl]-N′-(2,2,3,3,3-pentafluoro-propyl)-malonamide], the “MAB (mouse)” value in data set [1] (comparison table) and in data set [1] (setting [4]) was 19.6% throughout. Moreover, the results for the microsomal CLint at 10 μM in data set [1] and in data set [2] were 130 µL/min/mg and 12.5 µL/min/mg, respectively. The “MAB (human)” value in data set [2] (comparison table) and in data set [2] (setting [4]) was 55.5% each time.

In the case of `CC(O)(C(=O)NCC(F)(F)C(F)(F)F)C(=O)N[C@H]1CN(CCC(F)(F)F)c2ccccc2NC1=O` (single isomer, unassigned) [Example 5, (R or S)-2-Hydroxy-2-methyl-N-[(S)-4-oxo-1-(3,3,3-trifluoro-propyl)-2,3,4,5-tetrahydro-1H-benzo[b][1,4]diazepin-3-yl]-N′-(2,2,3,3,3-pentafluoro-propyl)-malonamide and (S or R)-2-Hydroxy-2-methyl-N-[(S)-4-oxo-1-(3,3,3-trifluoro-propyl)-2,3,4,5-tetrahydro-1H-benzo[b][1,4]diazepin-3-yl]-N′-(2,2,3,3,3-pentafluoro-propyl)-malonamide], the thermodynamic solubility in data set [3] is 67 µg/mL (≈ 129 µM). Besides, the “MAB (mouse)” value in data set [1] (setting [4]) is 10.8%. Besides, the microsomal CLint at 10 μM was 262 µL/min/mg in data set [1] and 18.6 µL/min/mg in data set [2]. Also, the “MAB (human)” value in data set [2] (setting [4]) was 45.5%.

In the case of `CC(O)(C(=O)NCC(F)(F)C(F)(F)F)C(=O)N[C@H]1CN(CCCC(F)(F)F)c2ccccc2NC1=O` (single isomer, unassigned) [Example 6, (R or S)-2-Hydroxy-2-methyl-N-[(S)-4-oxo-1-(4,4,4-trifluoro-butyl)-2,3,4,5-tetrahydro-1H-benzo[b][1,4]diazepin-3-yl]-N′-(2,2,3,3,3-pentafluoro-propyl)-malonamide and (S or R)-2-Hydroxy-2-methyl-N-[(S)-4-oxo-1-(4,4,4-trifluoro-butyl)-2,3,4,5-tetrahydro-1H-benzo[b][1,4]diazepin-3-yl]-N′-(2,2,3,3,3-pentafluoro-propyl)-malonamide], the thermodynamic solubility in data set [3] is 124 µg/mL (≈ 232 µM). Further, the “MAB (mouse)” value in data set [1] (setting [4]) was 25.0%. The microsomal CLint at 10 μM was 94.9 µL/min/mg in data set [1] and 15.9 µL/min/mg in data set [2]. In addition, the “MAB (human)” value in data set [2] (setting [4]) is listed as 49.4%.

`CC(O)(C(=O)NCC(F)(F)C(F)(F)F)C(=O)N[C@H]1CN(CCO)c2ccccc2N(CC(F)(F)F)C1=O` (single isomer, unassigned) [Example 8, (R or S)-2-Hydroxy-N-[(S)-5-(2-hydroxy-ethyl)-2-oxo-1-(2,2,2-trifluoro-ethyl)-2,3,4,5-tetrahydro-1H-benzo[b][1,4]diazepin-3-yl]-2-methyl-N′-(2,2,3,3,3-pentafluoro-propyl)-malonamide] displayed a thermodynamic solubility in data set [3] of 2670 µg/mL (≈ 4850 µM). Moreover, the “MAB (mouse)” value in data set [1] (setting [4]) is 37.5%. Besides, the microsomal CLint at 10 μM in data set [1] worked out at 52.7 µL/min/mg. The “MAB (human)” value in data set [2] (setting [4]) is listed as 100.0%.

In data set [3], `CC(O)(C(=O)NCC(F)(F)C(F)(F)F)C(=O)N[C@H]1CN(CC(F)(F)F)c2ccccc2N(CCO)C1=O` (single isomer, unassigned) [Example 9, (R or S)-2-Hydroxy-N-[(S)-1-(2-hydroxy-ethyl)-2-oxo-5-(2,2,2-trifluoro-ethyl)-2,3,4,5-tetrahydro-1H-benzo[b][1,4]diazepin-3-yl]-2-methyl-N′-(2,2,3,3,3-pentafluoro-propyl)-malonamide] came in with a thermodynamic solubility of 1780 µg/mL (≈ 3240 µM). For the same compound, in data set [1] (setting [4]), the “MAB (mouse)” value is given as 32.7%. Moreover, the microsomal CLint at 10 μM turned out to be 65.2 µL/min/mg in data set [1] and 2.1 µL/min/mg in data set [2]. Besides, in data set [2] (setting [4]), the “MAB (human)” value is given as 88.2%.

Turning to `CC(O)(C(=O)NCC(F)(F)C(F)(F)F)C(=O)N[C@H]1CN(C(=O)OCCCC(F)(F)F)c2ccccc2N(CCCC(F)(F)F)C1=O` (single isomer, unassigned) [Example 13], in data set [1] (setting [4]), the “MAB (mouse)” value is on record as 100%. Further, in data set [2] (setting [4]), the “MAB (human)” value is recorded as 87.4%. Besides, the microsomal CLint at 10 μM in data set [2] was 2.2 µL/min/mg.

As for `CC(C(=O)NCC(F)(F)C(F)(F)F)C(=O)N[C@H]1CN(C(=O)OCC2CC2)c2ccccc2N(CC(F)(F)F)C1=O` (some centres unmarked) [reference compound], the “MAB (mouse)” value in data set [1] (comparison table) was 47.6%. For the same compound, the “MAB (human)” value in data set [2] (comparison table) came out at 26.8%.
